Legend:
HH cells = experiment: Cell death assay in CTCL cell line HH; type: cell-based; conditions: different concentrations, 24 h
Text: (§1) ABT-199, ABT-263 and the mouse antibody against human Bcl-2 were obtained from Santa Cruz Biotechnology. DMF and monomethyl fumarate (MMF) were purchased from Sigma-Aldrich. Caspase-3 and cleaved-Caspase-3 antibodies came from Cell Signaling Technology, Ki-67 antibodies from Novacastra. Primary CD4+ T cells were isolated from heparinized whole blood and treated as indicated (Nicolay et al. (2016), Blood 128(6):805-815). Cell lines were obtained from ATCC (HH, J16) or generously donated by Drs. Gniadecki and Pless from Bispebjerg Hospital Copenhagen, Denmark and Dr. Kaltoft, Aarhus University Denmark (SeAx) or Prof. Eichmuiller from DKFZ Heidelberg, Germany (MyLa), and cultured as described (Nikolay et al, ibd.)
(§2) 1.3 Cell Death Assays, Quantitative Reverse Transcript (qRT) PCR, Western Blot were Performed as According to Standard Methods.

[1] = system: primary healthy CD4+ T cells; experiment: Cell death assay in primary CD4+ cells of healthy donors; type: cell-based, human; conditions: different concentrations
Protocol: (§3) Seven patients with Sezary syndrome (CTCL stage IV) diagnosed according to WHO-EORTC classification of CTCL and criteria of the international society of cutaneous lymphomas were included in the study. As controls, we investigated blood samples of healthy donors (n=7). Informed consent was obtained from all subjects before inclusion. The study was conducted according to ethical guidelines at our institution and the Helsinki Declaration and was approved by the ethics committee II of the University of Heidelberg.
as §1, §2

primary CD4+ CTCL cells = experiment: Cell death assay in primary CD4+ CTCL cells of Sezary patients; type: cell-based, human; conditions: increasing concentrations, 24 h and 48 h
Protocol: as §3, §1, §2

Bcl-xL = Bcl-xL (Homo sapiens, UniProt Q07817); conditions: inhibition of Bcl-xL; cited from earlier work
MyLa cells = experiment: Cell death assay in CTCL cell line MyLa; type: cell-based
Text: as §1, §2

J16 cells = experiment: Cell death assay in non-CTCL cell line J16; type: cell-based; conditions: different concentrations, 24 h
Text: as §1, §2

SeAx cells = experiment: Cell death assay in CTCL cell line SeAx; type: cell-based; conditions: different concentrations, 24 h
Text: as §1, §2

SeAx xenograft tumors [2] = experiment: Orthotopic SeAx xenograft CTCL mouse model: tumor growth and survival; type: in vivo, NSG mice; conditions: for tumor growth: ABT-199 100 mg/kg once oral, DMF 30 mg/kg i.p. once daily for 28 days; for overall survival: SeAx xenograft NSG mice; for animals still under follow-up (survival rate): day 30, one day after the end of the treatment phase
Protocol: (§4) All animal experiments were in accordance with the approved guidelines of the local Governmental Committee for Animal Experimentation (RP Karlsruhe, Germany, license G282/15). Mice were maintained at a 12 h light-dark cycle with unrestricted diet and water. Under isoflurane inhalation anesthesia (1-1.5% in O2, 0.5 L/min), 3×10^6 SeAx cells suspended in 30 μl of PBS/Matrigel (1:1, v/v) were injected intradermally (i.d.) into the right flank of 6-7-week-old female NOD SCID gamma (NSG) mice recruited from the Center for Preclinical Research, DKFZ, Heidelberg and kept on Kliba diet 3307 with n=8 mice/group. When tumors reached palpable size (mean of 0.025 cm^3) mice were randomized and treated first as indicated once by oral gavage with ABT-199 dissolved in a vehicle of […], 30% polyethylenglycol 400 and 10% ethanol at a concentration of 100 mg/kg body weight, 10 μl/g mouse or vehicle alone as indicated. One day later, intraperitoneal (i.p.) treatment with DMF once daily for 28 days was started as indicated. The compound, dissolved at 3 mg/ml in 30° C. pre-warmed PBS, was given with 10 μl/g mouse at a dose of 30 mg/kg bodyweight. For control, PBS (10 μl/g mouse) was injected. Tumor volume was measured with a caliper 2-3 times a week and calculated according to the formula: V=(length (mm)×width (mm)^2)/2. Necropsies were taken when one tumor diameter reached 1.5 cm or when mice reached stop criterion of the German Society of Laboratory Animal Sciences (GV-SOLAS), here defined as survival. For tissue staining, the liver and a quarter of the tumor was fixed in 4% PBS-buffered formaldehyde and embedded into paraffin according to routine procedures.

[3] = system: Bax/Bak interaction in SeAx cells; experiment: Proximity ligation assay (PLA) of Bax/Bak in SeAx cells; type: cell-based
Protocol: (§5) In order to determine protein interactions a proximity ligation assay was performed with Duolink® PLA by Sigma-Aldrich as described before (Schroeder et al. (2017), Nat. Publ. Gr. October 2016:1-12). The rabbit antibody against Bak and the mouse antibody against Bax were obtained from Abcam.

[4] = system: caspase 3 cleavage in SeAx cells; experiment: Western blot of caspase 3 cleavage in SeAx cells; type: cell-based; conditions: 100 or 1000 nM ABT-199, 50 μM DMF
Text: as §1, §2

[5] = system: Bax/Bak interaction in HH cells; experiment: Proximity ligation assay (PLA) of Bax/Bak in HH cells; type: cell-based
Protocol: as §5

[6] = system: caspase 3 cleavage in HH cells; experiment: Western blot of caspase 3 cleavage in HH cells; type: cell-based; conditions: 100 or 1000 nM ABT-199, 50 μM DMF
Text: as §1, §2

SeAx xenograft tumors [7] = experiment: Histology and immunohistochemistry of SeAx xenograft tumors; type: in vivo, NSG mice; conditions: for Ki-67 positivity (proliferation index) / caspase 3 cleavage within the xenograft tumors: immunohistochemistry, 400×
Protocol: as §4
Hematoxylin and eosin staining as well as immunohistochemistry were performed on 5 μm paraffin sections as described. For immunohistochemical stainings, paraffin-embedded tissue was sectioned into 5 μm slices. Ki-67 was detected in deparaffinized tissue specimens after antigen retrieval (20 min at boiling temperature in 10 mM sodium citrate pH 6.0), block of endogenous peroxidases in 3% H2O2 in PBS for 10 min, block in 100% goat serum for 1 h at room temperature (RT) and incubation overnight at 4° C. in a 1:250 dilution of anti-Ki-67 antibodies (NCL-Ki67p, Novacastra). Slides were incubated with appropriate horse-radish peroxidase (HRP)-coupled secondary antibody (1:200) for 1 h at RT, incubated with HRP substrate solution (DAB/H2O2, Sigma, Munich/Germany). Nuclei were counterstained with hematoxylin for 1 min. Mounting was in Eukitt (R. Langenbrinck, Teningen/Germany). Sections incubated without primary antibody were included as negative controls.
Immunohistochemical assessment of the tissue slides was performed by a dermatologist (JPN) and a pathologist (TA).
For microscopy, the following Nikon objective lenses were used (Nikon, Tokio, Japan): Nikon Plan Apoλ 2×/0.1, Nikon Plan Apoλ 20×/0.75. Microscopy was performed at 22° C. throughout with cryopreserved or paraffin sections. As fluorochromes phycoerythrin (PE), fluorescein-isothiocyanate (FITC) and DAPI were used for red, green and blue stainings, respectively. The micrographs were taken with a Nikon DS-Fi2 camera using the Nikon DS-L3 software.

Bcl-2 = experiment: Western blot of Bcl-2 family protein levels upon NFκB inhibition; type: cell-based, human; conditions: J16, HH and SeAx cells
Text: as §1, §2

Sequence of Bcl-xL (Q07817 whole entry, species assumed): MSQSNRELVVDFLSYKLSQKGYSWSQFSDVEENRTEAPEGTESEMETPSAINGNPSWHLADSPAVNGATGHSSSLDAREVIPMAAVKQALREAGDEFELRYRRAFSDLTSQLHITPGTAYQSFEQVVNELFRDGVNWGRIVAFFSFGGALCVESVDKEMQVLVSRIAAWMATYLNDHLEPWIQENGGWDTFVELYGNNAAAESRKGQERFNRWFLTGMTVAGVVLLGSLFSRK

Question: Which cell death response (HH cells) does the source give for `CC1(C)CCC(c2ccc(Cl)cc2)=C(CN2CCN(c3ccc(C(=O)NS(=O)(=O)c4ccc(N[C@H](CCN5CCOCC5)CSc5ccccc5)c(S(=O)(=O)C(F)(F)F)c4)cc3)CC2)C1` [ABT-263, (R)-4-(4-((4′-chloro-4,4-dimethyl-3,4,5,6-tetrahydro-[1,1′-biphenyl]-2-yl)methyl)piperazin-1-yl)-N-((4-((4-morpholino-1-(phenylthio)butan-2-yl)amino)-3-((trifluoromethyl)sulfonyl)phenyl)sulfonyl)benzamide] here?
Answer: barely any response

Question: What about the cell death effect [1] of the same molecule?
Answer: weak effect

Question: What about the specific cell death (primary CD4+ CTCL cells) of the same molecule?
Answer: dose-dependent specific CD4+ T cell death after 24 h and 48 h with significantly higher rates in Sezary patients' cells than in those from healthy donors

Question: And the “number of circulating platelets” value (Bcl-xL)?
Answer: concentration-dependent decrease in the number of circulating platelets

Question: And the cell death sensitivity (MyLa cells)?
Answer: high cell death sensitivity

Question: What about the cell death sensitivity (J16 cells) of the same molecule?
Answer: by far attenuated cell death sensitivity

Question: And the cell death sensitivity (SeAx cells)?
Answer: high cell death sensitivity

Question: For `CC1(C)CCC(CN2CCN(c3ccc(C(=O)NS(=O)(=O)c4ccc(NCC5CCOCC5)c([N+](=O)[O-])c4)c(Oc4cnc5[nH]ccc5c4)c3)CC2)=C(c2ccc(Cl)cc2)C1` [ABT-199, 4-[4-[[2-(4-chlorophenyl)-4,4-dimethyl-1-cyclohexen-1-yl]methyl]-1-piperazinyl]-N-[[3-nitro-4-[[(tetrahydro-2H-pyran-4-yl)methyl]amino]phenyl]sulfonyl]-2-(1H-pyrrolo[2,3-b]pyridin-5-yloxy)-Benzamide], which cell death response (HH cells) is on record?
Answer: barely any response

Question: What about the cell death effect [1] of the same molecule?
Answer: weak effect

Question: What about the tumor growth (SeAx xenograft tumors [2]) of the same molecule?
Answer: weak, but not significant decrease in tumor growth

Question: What about the overall survival (SeAx xenograft tumors [2]) of the same molecule?
Answer: no advantage with respect to survival

Question: What about the “animals still under follow-up (survival rate)” value (SeAx xenograft tumors [2]) of the same molecule?
Answer: 0%

Question: And the “animals dropped out of the group” value (SeAx xenograft tumors [2]; within the first 10 days after monotreatment, ABT-199 100 mg/kg once by oral gavage, n=8)?
Answer: 3/8

Question: And the specific cell death (primary CD4+ CTCL cells)?
Answer: dose-dependent specific CD4+ T cell death after 24 h and 48 h with significantly higher rates in Sezary patients' cells than in those from healthy donors

Question: What about the “green fluorescence (Bax/Bak interaction, PLA)” value [3] of the same molecule?
Answer: significant increase in green fluorescence

Question: And the “caspase 3 cleavage” value [4]?
Answer: dose-dependent caspase 3 cleavage

Question: And the “Bax/Bak interaction (PLA)” value [5]?
Answer: had no effect

Question: What about the “caspase 3 cleavage” value [6] of the same molecule?
Answer: had no effect

Question: And the cell death sensitivity (MyLa cells)?
Answer: high cell death sensitivity

Question: What about the cell death sensitivity (J16 cells) of the same molecule?
Answer: by far attenuated cell death sensitivity

Question: And the cell death sensitivity (SeAx cells)?
Answer: high cell death sensitivity

Question: What about the “Ki-67 positivity (proliferation index)” value (SeAx xenograft tumors [7]) of the same molecule?
Answer: slightly reduced positivity for Ki-67

Question: What about the “caspase 3 cleavage within the xenograft tumors” value (SeAx xenograft tumors [7]) of the same molecule?
Answer: slightly increased caspase 3 cleavage

Question: With `COC(=O)/C=C/C(=O)OC` [DMF, Dimethyl (E)-butenedioate] as the molecule, how does the “protein levels of Bcl-2 or other anti-apoptotic Bcl-2 family members like Mcl-1” value (Bcl-2) read?
Answer: no influence

Question: What about the tumor growth (SeAx xenograft tumors [2]) of the same molecule?
Answer: weak, but not significant decrease in tumor growth

Question: And the overall survival (SeAx xenograft tumors [2])?
Answer: overall survival benefit

Question: And the “animals still under follow-up (survival rate)” value (SeAx xenograft tumors [2])?
Answer: 13%

Question: What about the “Bax/Bak interaction (PLA)” value [5] of the same molecule?
Answer: had no effect

Question: And the “caspase 3 cleavage” value [6]?
Answer: could induce significant caspase 3 cleavage

Question: And the “mitotic activity (mitosis figures in H&E specimens)” value (SeAx xenograft tumors [7]; 200× magnification)?
Answer: significant decrease in mitotic activity

Question: What about the “Ki-67 positivity (proliferation index)” value (SeAx xenograft tumors [7]) of the same molecule?
Answer: slightly reduced positivity for Ki-67

Question: And the “caspase 3 cleavage within the xenograft tumors” value (SeAx xenograft tumors [7])?
Answer: slightly increased caspase 3 cleavage

Question: For `CN(C)CC[C@H](CSc1ccccc1)Nc1ccc(S(=O)(=O)NC(=O)c2ccc(N3CCN(Cc4ccccc4-c4ccc(Cl)cc4)CC3)cc2)cc1[N+](=O)[O-]` [ABT-737, 4-[4-[(4′-chloro[1,1′-biphenyl]-2-yl)methyl]-1-piperazinyl]-N-[[4-[[(1R)-3-(dimethylamino)-1-[(phenylthio)methyl]propyl]amino]-3-nitrophenyl]sulfonyl]-Benzamide], which “number of circulating platelets” value (Bcl-xL) is on record?
Answer: concentration-dependent decrease in the number of circulating platelets
